How the values were obtained:
[1] = assay type: physicochemical; details: 80% aqueous dimethylformamide
Text: Electrometric titration of A-32887 methyl ether derivative (Na salt) in 80% aqueous dimethylformamide indicates the presence of a titratable group with a pKa value of about 5.4.

[2] = tested on: Bacillus subtilis ATCC 6633; experiment: Paper-disc agar-diffusion assay system (Plate Assay, Table VIII); assay type: cell-based; details: samples at 1 mg/ml, as Na-K salts; dried-broth reference standard = 100 units/ml
Experimental: (§1) The antimicrobial activity of two typical A-32887 acyl ester derivatives is compared with that of A-32887 (each as Na-K salts) in Table VIII. Activity against illustrative bacteria is measured by the conventional disc-diffusion method. In addition, the results of a conventional paper-disc agar-diffusion assay system (Plate Assay) against Bacillus subtilis ATCC 6633 are reported. The activity in this test is quantitated and uses a dried-broth reference standard which is assigned an arbitrary potency of 100 units/ml. The samples were assayed at 1 mg/ml.

[3] = tested on: Staphylococcus aureus; experiment: Conventional disc-diffusion method (Table VIII); assay type: cell-based; details: as Na-K salts; samples at 1 mg/ml
Experimental: as §1

[4] = tested on: Micrococcus lutea; experiment: Conventional disc-diffusion method (Table VIII); assay type: cell-based; details: as Na-K salts; samples at 1 mg/ml
Experimental: as §1

[5] = tested on: Bacillus subtilis; experiment: Conventional disc-diffusion method (Table VIII); assay type: cell-based; details: as Na-K salts, samples at 1 mg/ml
Experimental: as §1

[6] = Ionophore properties

Which results are given for `CO[C@H]1CC[C@H](OC2[C@@H](C)[C@@](C)(O)O[C@H]([C@H]3CC[C@H]([C@@H]4CC[C@H]([C@@]5(C)O[C@]6(O[C@H](C[C@@H]7O[C@](O)([C@@H](O)C(=O)O)[C@@H](C)[C@H](OC)[C@@]7(C)OC)C[C@@H](OC)[C@H]6C)[C@H](C)[C@H]5OC)O4)O3)[C@H]2C)O[C@@H]1C.[K+].[Na+]` (some centres unmarked) [A-32887]?
pKa [1]: 4.60; Plate Assay [2]: 1350 units/ml; Activity by disc-diffusion, Staphylococcus aureus [3]: 16; Activity by disc-diffusion, Micrococcus lutea [4]: 16; Activity by disc-diffusion, Bacillus subtilis* ([5]; Minimal media): 30; Activity by disc-diffusion, Bacillus subtilis [5]: 18; ion-binding and ion-transport properties [6]: exhibits ion-binding and iontransport properties; cation permeability of membranes ([6]; natural and artificial membranes): alters the cation permeability
